Experimental data: ChEMBL document CHEMBL1134149, “Discovery, total synthesis, HRV 3C-protease inhibitory activity, and structure-activity relationships of 2-methoxystypandrone and its analogues” (Bioorg Med Chem Lett, 2001)

What was measured:
[1] = target: T1, Papain (Carica papaya, UniProt P00784); assay: Inhibitory activity against papain using HPLC assay
T1 sequence (P00784 whole entry): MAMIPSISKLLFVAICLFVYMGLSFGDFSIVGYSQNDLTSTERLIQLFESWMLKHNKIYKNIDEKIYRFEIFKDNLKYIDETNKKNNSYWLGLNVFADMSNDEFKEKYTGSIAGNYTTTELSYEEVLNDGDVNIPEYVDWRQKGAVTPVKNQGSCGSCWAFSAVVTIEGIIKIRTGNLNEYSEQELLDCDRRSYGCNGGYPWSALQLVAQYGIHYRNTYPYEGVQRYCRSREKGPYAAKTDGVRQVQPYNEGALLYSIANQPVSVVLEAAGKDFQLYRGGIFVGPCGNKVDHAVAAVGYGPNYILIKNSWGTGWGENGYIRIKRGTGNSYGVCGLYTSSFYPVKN

[2] = target: T2, Papain (Carica papaya) (UniProt P00784); assay: Percent inhibition against papain; details: concentration not given here
T2 sequence (whole entry): T1 sequence (P00784 whole entry)

| Compound | IC50 [1] | inhibition [2] |
| --- | --- | --- |
| COC1=CC(=O)c2c(cc(C)c(C(C)=O)c2OC(C)=O)C1=O | 33 µM |  |
| COC1=CC(=O)c2c(cc(C)c(C(C)=O)c2O)C1=O | 23 µM |  |
| O=C1C=CC(=O)c2c1ccc1c2ccc2ccccc21 | 18 µM | 45% |
| O=C1C=Cc2ccccc2C1=O [1,2-NAPHTHOQUINONE] | 120 µM | 67% |
| O=C1C(=O)c2ccccc2-c2ccccc21 [9,10-PHENANTHRENEQUINONE] | 91 µM | 24% |
| O=C1C=CC(=O)c2ccccc21 [NAPHTHOQUINONE] | 29 µM |  |
